Measured values taken from ChEMBL document CHEMBL1201862, “PubChem BioAssay data set” (2004).
“And” between values parts separate entries of the source, which are not always exact repeats. Equal values may be shown once.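 Following 48 hours of exposure in 96-well plates, responses at five concentrations were used to interpolate endpoints linearly. At the GI50, growth is halved.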 The source made the active and inactive calls. No stated cut-off is given here; in the data, active = GI50 up to about 1.1 µM and inactive = higher.

Columns and labels:
Experiment in all cases: growth of human tumour cells (NCI), 48 h
CCRF-CEM = tested on: CCRF-CEM
ACHN = tested on: ACHN
OVCAR-5 = tested on: OVCAR-5
SNB-75 = tested on: SNB-75
SK-MEL-28 = tested on: SK-MEL-28
M14 = tested on: M14
SF-268 = tested on: SF-268
HOP-62 = tested on: HOP-62
SK-OV-3 = tested on: SK-OV-3
SK-MEL-5 = tested on: SK-MEL-5
HL-60 = tested on: HL-60
A549 = tested on: A549
OVCAR-4 = tested on: OVCAR-4
COLO 205 = tested on: COLO 205
NCI-H460 = tested on: NCI-H460
Malme-3M = tested on: Malme-3M
K562 = tested on: K562
IGROV-1 = tested on: IGROV-1
SW-620 = tested on: SW-620
NCI-H23 = tested on: NCI-H23
MDA-MB-435 = tested on: MDA-MB-435
SR = tested on: SR
786-0 = tested on: 786-0
T47D = tested on: T47D
MCF7 = tested on: MCF7
NCI/ADR-RES = tested on: NCI/ADR-RES
HOP-92 = tested on: HOP-92
RPMI-8226 = tested on: RPMI-8226
UACC-62 = tested on: UACC-62
RXF 393 = tested on: RXF 393
SK-MEL-2 = tested on: SK-MEL-2
U-251 = tested on: U-251
CAKI-1 = tested on: CAKI-1
MOLT-4 = tested on: MOLT-4
LOX IMVI = tested on: LOX IMVI
OVCAR-3 = tested on: OVCAR-3
EKVX = tested on: EKVX
MDA-N = tested on: MDA-N
HCT-15 = tested on: HCT-15
SN12C = tested on: SN12C
UACC-257 = tested on: UACC-257
KM12 = tested on: KM12
NCI-H522 = tested on: NCI-H522
HCC 2998 = tested on: HCC 2998
OVCAR-8 = tested on: OVCAR-8
HT-29 = tested on: HT-29
DU-145 = tested on: DU-145
HCT-116 = tested on: HCT-116
TK-10 = tested on: TK-10
SF-295 = tested on: SF-295
SF-539 = tested on: SF-539
MDA-MB-231 = tested on: MDA-MB-231
UO-31 = tested on: UO-31
PC-3 = tested on: PC-3
SNB-19 = tested on: SNB-19
A498 = tested on: A498
NCI-H226 = tested on: NCI-H226

SMILES: C=CCNc1nc(C#N)c(N)s1
- GI50 (CCRF-CEM): > 10 µM (inactive)
- GI50 (ACHN): > 10 µM (inactive)
- GI50 (OVCAR-5): > 10 µM (inactive)
- GI50 (SNB-75): > 10 µM (inactive)
- GI50 (SK-MEL-28): > 10 µM (inactive)
- GI50 (M14): > 10 µM (inactive)
- GI50 (SF-268): > 10 µM (inactive)
- GI50 (HOP-62): > 10 µM (inactive)
- GI50 (SK-OV-3): > 10 µM (inactive)
- GI50 (SK-MEL-5): > 10 µM (inactive)
- GI50 (HL-60): > 10 µM (inactive)
- GI50 (A549): > 10 µM (inactive)
- GI50 (OVCAR-4): > 10 µM (inactive)
- GI50 (COLO 205): > 10 µM (inactive)
- GI50 (NCI-H460): > 10 µM (inactive)
- GI50 (Malme-3M): > 10 µM (inactive)
- GI50 (K562): > 10 µM (inactive)
- GI50 (IGROV-1): > 10 µM (inactive)
- GI50 (SW-620): > 10 µM (inactive)
- GI50 (NCI-H23): > 10 µM (inactive)
- GI50 (MDA-MB-435): > 10 µM (inactive)
- GI50 (SR): > 10 µM (inactive)
- GI50 (786-0): > 10 µM (inactive)
- GI50 (T47D): > 10 µM (inactive)
- GI50 (MCF7): > 10 µM (inactive)
- GI50 (NCI/ADR-RES): > 10 µM (inactive)
- GI50 (HOP-92): > 10 µM (inactive)
- GI50 (RPMI-8226): > 10 µM (inactive)
- GI50 (UACC-62): > 10 µM (inactive)
- GI50 (RXF 393): > 10 µM (inactive)
- GI50 (SK-MEL-2): > 10 µM (inactive)
- GI50 (U-251): > 10 µM (inactive)
- GI50 (CAKI-1): > 10 µM (inactive)
- GI50 (MOLT-4): > 10 µM (inactive)

SMILES: CCc1c(C)c(C#N)c(=S)n(C2OC(COC(C)=O)C(OC(C)=O)C(OC(C)=O)C2OC(C)=O)c1C (stereo not drawn)
- GI50 (CCRF-CEM): > 100 µM (inactive)
- GI50 (LOX IMVI): > 100 µM (inactive)
- GI50 (OVCAR-3): > 100 µM (inactive)
- GI50 (SNB-75): 0.0113 µM (active)
- GI50 (SK-MEL-28): > 100 µM (inactive)
- GI50 (M14): 39.4 µM (inactive) and 46.2 µM (inactive)
- GI50 (SF-268): > 100 µM (inactive) and 73.5 µM (inactive)
- GI50 (EKVX): 87.1 µM (inactive)
- GI50 (MDA-N): > 100 µM (inactive)
- GI50 (HCT-15): > 100 µM
- GI50 (SK-MEL-5): > 100 µM (inactive)
- GI50 (HL-60): > 100 µM (inactive)
- GI50 (SN12C): > 100 µM (inactive)
- GI50 (A549): 92.9 µM (inactive)
- GI50 (UACC-257): > 100 µM (inactive)
- GI50 (OVCAR-4): > 100 µM (inactive) and 80.7 µM (inactive)
- GI50 (COLO 205): > 100 µM (inactive)
- GI50 (KM12): > 100 µM (inactive)
- GI50 (NCI-H460): > 100 µM (inactive)
- GI50 (Malme-3M): > 100 µM (inactive)
- GI50 (NCI-H522): > 100 µM (inactive) and 52.8 µM (inactive)
- GI50 (K562): > 100 µM (inactive)
- GI50 (HCC 2998): > 100 µM (inactive)
- GI50 (IGROV-1): > 100 µM (inactive)
- GI50 (SW-620): > 100 µM (inactive)
- GI50 (NCI-H23): > 100 µM (inactive)
- GI50 (MDA-MB-435): > 100 µM (inactive)
- GI50 (SR): > 100 µM (inactive)
- GI50 (T47D): > 100 µM (inactive)
- GI50 (MCF7): > 100 µM (inactive)
- GI50 (OVCAR-8): > 100 µM (inactive)
- GI50 (NCI/ADR-RES): > 100 µM (inactive)
- GI50 (SK-MEL-2): 13 µM (inactive)
- GI50 (HT-29): > 100 µM (inactive)
- GI50 (DU-145): > 100 µM (inactive)
- GI50 (CAKI-1): > 100 µM (inactive)
- GI50 (MOLT-4): > 100 µM (inactive)

SMILES: CCCC1(N2C(=O)c3ccc4c5c(ccc(c35)C2=O)N(C2(CCC)CCCCC2)C4=O)CCCCC1
- GI50 (ACHN): > 100 µM (inactive)
- GI50 (OVCAR-3): > 100 µM (inactive)
- GI50 (OVCAR-5): > 100 µM (inactive)
- GI50 (SK-MEL-28): > 100 µM (inactive)
- GI50 (HCT-116): > 100 µM (inactive)
- GI50 (M14): > 100 µM (inactive)
- GI50 (TK-10): > 100 µM (inactive)
- GI50 (SF-268): > 100 µM (inactive)
- GI50 (MDA-N): > 100 µM (inactive)
- GI50 (HOP-62): > 100 µM (inactive)
- GI50 (SK-OV-3): > 100 µM (inactive)
- GI50 (HCT-15): > 100 µM
- GI50 (SK-MEL-5): > 100 µM (inactive)
- GI50 (SF-295): > 100 µM (inactive)
- GI50 (SF-539): > 100 µM (inactive)
- GI50 (SN12C): > 100 µM (inactive)
- GI50 (A549): > 100 µM (inactive)
- GI50 (OVCAR-4): > 100 µM (inactive)
- GI50 (MDA-MB-231): > 100 µM (inactive)
- GI50 (UO-31): > 100 µM (inactive)
- GI50 (COLO 205): > 100 µM (inactive)
- GI50 (PC-3): > 100 µM (inactive)
- GI50 (SNB-19): > 100 µM (inactive)
- GI50 (KM12): > 100 µM (inactive)
- GI50 (NCI-H460): > 100 µM (inactive)
- GI50 (Malme-3M): > 100 µM (inactive)
- GI50 (NCI-H522): > 100 µM (inactive)
- GI50 (K562): > 100 µM (inactive)
- GI50 (HCC 2998): > 100 µM (inactive)
- GI50 (SW-620): > 100 µM (inactive)
- GI50 (NCI-H23): > 100 µM (inactive)
- GI50 (MDA-MB-435): > 100 µM (inactive)
- GI50 (786-0): > 100 µM (inactive)
- GI50 (T47D): > 100 µM (inactive)
- GI50 (MCF7): > 100 µM (inactive)
- GI50 (OVCAR-8): > 100 µM (inactive)
- GI50 (A498): > 100 µM (inactive)
- GI50 (NCI/ADR-RES): > 100 µM (inactive)
- GI50 (HOP-92): > 100 µM (inactive)
- GI50 (RPMI-8226): > 100 µM (inactive)
- GI50 (UACC-62): > 100 µM (inactive)
- GI50 (RXF 393): > 100 µM (inactive)
- GI50 (SK-MEL-2): > 100 µM (inactive)
- GI50 (HT-29): > 100 µM (inactive)
- GI50 (U-251): > 100 µM (inactive)
- GI50 (DU-145): > 100 µM (inactive)
- GI50 (CAKI-1): > 100 µM (inactive)
- GI50 (MOLT-4): > 100 µM (inactive)

SMILES: O=S(=O)(O)CCS [MESNA]
- GI50 (CCRF-CEM): > 100 µM (inactive)
- GI50 (ACHN): > 100 µM (inactive)
- GI50 (LOX IMVI): > 100 µM (inactive)
- GI50 (OVCAR-3): > 100 µM (inactive)
- GI50 (OVCAR-5): > 100 µM (inactive)
- GI50 (NCI-H226): > 100 µM (inactive)
- GI50 (SNB-75): 39.7 µM (inactive)
- GI50 (SK-MEL-28): > 100 µM (inactive)
- GI50 (HCT-116): > 100 µM (inactive)
- GI50 (M14): > 100 µM (inactive)
- GI50 (SF-268): > 100 µM (inactive)
- GI50 (EKVX): > 100 µM (inactive)
- GI50 (MDA-N): > 100 µM (inactive)
- GI50 (HOP-62): > 100 µM (inactive)
- GI50 (SK-OV-3): > 100 µM (inactive)
- GI50 (HCT-15): > 100 µM
- GI50 (SK-MEL-5): > 100 µM (inactive)
- GI50 (SF-295): > 100 µM (inactive)
- GI50 (SF-539): > 100 µM (inactive)
- GI50 (SN12C): > 100 µM (inactive)
- GI50 (A549): > 100 µM (inactive)
- GI50 (UACC-257): > 100 µM (inactive)
- GI50 (OVCAR-4): > 100 µM (inactive)
- GI50 (MDA-MB-231): > 100 µM (inactive)
- GI50 (UO-31): > 100 µM (inactive)
- GI50 (COLO 205): > 100 µM (inactive)
- GI50 (PC-3): > 100 µM (inactive)
- GI50 (SNB-19): > 100 µM (inactive)
- GI50 (KM12): > 100 µM (inactive)
- GI50 (NCI-H460): > 100 µM (inactive)
- GI50 (Malme-3M): > 100 µM (inactive)
- GI50 (NCI-H522): > 100 µM (inactive)
- GI50 (K562): > 100 µM (inactive)
- GI50 (HCC 2998): > 100 µM (inactive)
- GI50 (IGROV-1): > 100 µM (inactive)
- GI50 (SW-620): > 100 µM (inactive)
- GI50 (NCI-H23): > 100 µM (inactive)
- GI50 (MDA-MB-435): > 100 µM (inactive)
- GI50 (SR): > 100 µM (inactive)
- GI50 (786-0): > 100 µM (inactive)
- GI50 (T47D): > 100 µM (inactive)
- GI50 (MCF7): > 100 µM (inactive)
- GI50 (OVCAR-8): > 100 µM (inactive)
- GI50 (A498): > 100 µM (inactive)
- GI50 (NCI/ADR-RES): > 100 µM (inactive)
- GI50 (HOP-92): > 100 µM (inactive)
- GI50 (UACC-62): > 100 µM (inactive)
- GI50 (RXF 393): > 100 µM (inactive)
- GI50 (SK-MEL-2): > 100 µM (inactive)
- GI50 (HT-29): > 100 µM (inactive)
- GI50 (U-251): > 100 µM (inactive)
- GI50 (DU-145): > 100 µM (inactive)
- GI50 (CAKI-1): > 100 µM (inactive)
- GI50 (MOLT-4): > 100 µM (inactive)
